Test results taken from US20260297131A1, “COMPOSITIONS AND METHODS FOR PEPTIDE-BASED MODULATORS OF HUMAN PAPILLOMAVIRUS ONCOPROTEIN E6” (priority 2023, published 2026).
Where “and” joins values, the source holds several entries; their conditions need not be identical. Equal values may be shown once. Square brackets hold non-standard residues; d marks the D form. Peptide text beside a SMILES is read from it. * marks the point of attachment. Acetyl(9-fluorenyl) = O=C(CC1c2ccccc2-c2ccccc21)*; Anthracene1carbonyl = O=C(c1cccc2cc3ccccc3cc12)*; 2Nal = N[C@@H](Cc1ccc2ccccc2c1)C(=O)O; Gly(cPent) = N[C@H](C(=O)O)C1CCCC1; 1Naphthoyl = O=C(c1cccc2ccccc12)*; Ala(cPr) = N[C@@H](CC1CC1)C(=O)O; Hyp = O=C(O)[C@@H]1C[C@@H](O)CN1; hPhe = N[C@@H](CCc1ccccc1)C(=O)O; Gly(cBu) = N[C@H](C(=O)O)C1CCC1; Aad = N[C@@H](CCCC(=O)O)C(=O)O; Cba = N[C@@H](CC1CCC1)C(=O)O; Nva = CCC[C@H](N)C(=O)O; Aib = CC(C)(N)C(=O)O; Dha = C=C(N)C(=O)O

Columns and labels:
MBP-16E6 [1] = target: T1, MBP-16E6 (Human papillomavirus 16, UniProt P03126, C104S/C118S/C147S/C87S); conditions: for Ratio to wild-type: N-terminal modified peptides, KD of WT divided by KD
T1 sequence (P03126 whole entry C104S/C118S/C147S/C87S, looked up): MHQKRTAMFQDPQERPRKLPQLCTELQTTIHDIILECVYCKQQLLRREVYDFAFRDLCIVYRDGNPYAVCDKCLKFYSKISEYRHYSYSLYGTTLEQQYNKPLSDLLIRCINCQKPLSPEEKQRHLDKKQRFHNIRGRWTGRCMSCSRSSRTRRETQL

MBP-16E6 [2] = target: T1, MBP-16E6; experiment: biochemical
[3] = KD, nM, TABLE 2B, BLI competition
[4] = KD in nM, N-terminal modified peptides, competition mode, N = 2 or 3, SEM of curve fitting

In the case of `CC[C@H](C)[C@H](NC(=O)CC1c2ccccc2-c2ccccc21)C(=O)N1CCC[C@H]1C(=O)N[C@@H](CCC(=O)O)C(=O)N[C@@H](CO)C(=O)N[C@@H](C)C(=O)N[C@@H](CCC(=O)O)C(=O)N[C@@H](CC(C)C)C(=O)N[C@H](C(=O)N[C@@H](C)C(=O)N[C@@H](CCC(N)=O)C(=O)N[C@@H](CCC(=O)O)C(=O)N[C@@H](C)C(=O)N[C@@H](C)C(=O)NCC(=O)N[C@@H](CCC(=O)O)C(=O)N[C@@H](CCC(=O)O)C(=O)N[C@@H](CCCNC(=N)N)C(=O)N[C@@H](CCCNC(=N)N)C(=O)N[C@@H](C)C(=O)N[C@@H](C)C(=O)N[C@@H](CCCCNC(=O)c1cccc2cc3ccccc3cc12)C(N)=O)[C@@H](C)O` [6′-3L3A] ({Acetyl(9-fluorenyl)}-IPESAELTAQEAAGEERRAAK(Anthracene1carbonyl)-NH2), the “KD, nM” value (MBP-16E6 [1]; TABLE 2B, BLI competition) is reported as “n.b”.

With `CC[C@H](C)[C@H](NC(=O)CC1c2ccccc2-c2ccccc21)C(=O)N1CCC[C@H]1C(=O)N[C@@H](CCC(=O)O)C(=O)N[C@@H](CO)C(=O)N[C@@H](CO)C(=O)N[C@@H](CCC(=O)O)C(=O)N[C@@H](CC(C)C)C(=O)N[C@H](C(=O)N[C@@H](CC(C)C)C(=O)N[C@@H](CCC(N)=O)C(=O)N[C@@H](CCC(=O)O)C(=O)N[C@@H](CC(C)C)C(=O)N[C@@H](CC(C)C)C(=O)NCC(=O)N[C@@H](CCC(=O)O)C(=O)N[C@@H](CCC(=O)O)C(=O)N[C@@H](CCCNC(=N)N)C(=O)N[C@@H](CCCNC(=N)N)C(=O)N[C@@H](C)C(=O)N[C@@H](C)C(=O)N[C@@H](CCCCNC(=O)CC1c2ccccc2-c2ccccc21)C(N)=O)[C@@H](C)O` [Entry 2] ({Acetyl(9-fluorenyl)}-IPESSELTLQELLGEERRAAK(Acetyl(9-fluorenyl))-NH2) the Kd (MBP-16E6 [2]; [3]) was 8.6 ± 3.2 nM.

Work on `CC[C@H](C)[C@H](NC(=O)CC1c2ccccc2-c2ccccc21)C(=O)N1CCC[C@H]1C(=O)N[C@@H](CCC(=O)O)C(=O)N[C@@H](CO)C(=O)N[C@@H](CO)C(=O)N[C@@H](CCC(=O)O)C(=O)N[C@@H](CC(C)C)C(=O)N[C@H](C(=O)N[C@@H](CC(C)C)C(=O)N[C@@H](CCC(N)=O)C(=O)N[C@@H](CCC(=O)O)C(=O)N[C@@H](CC(C)C)C(=O)N[C@@H](CC(C)C)C(=O)NCC(=O)N[C@@H](CCC(=O)O)C(=O)N[C@@H](CCC(=O)O)C(=O)N[C@@H](CCCNC(=N)N)C(=O)N[C@@H](CCCNC(=N)N)C(=O)N[C@@H](C)C(=O)N[C@@H](C)C(=O)N[C@@H](CCCCNC(=O)c1cccc2ccccc12)C(N)=O)[C@@H](C)O` [Entry 4] ({Acetyl(9-fluorenyl)}-IPESSELTLQELLGEERRAAK(1Naphthoyl)-NH2) yielded a Kd (MBP-16E6 [2]; [3]) of 47 ± 7.4 nM.

Work on `CC[C@H](C)[C@H](NC(=O)CC1c2ccccc2-c2ccccc21)C(=O)N1CCC[C@H]1C(=O)N[C@@H](CCC(=O)O)C(=O)N[C@@H](CO)C(=O)N[C@@H](CO)C(=O)N[C@@H](CCC(=O)O)C(=O)N[C@@H](CC(C)C)C(=O)N[C@H](C(=O)N[C@@H](CC(C)C)C(=O)N[C@@H](CCC(N)=O)C(=O)N[C@@H](CCC(=O)O)C(=O)N[C@@H](CC(C)C)C(=O)N[C@@H](CC(C)C)C(=O)NCC(=O)N[C@@H](CCC(=O)O)C(=O)N[C@@H](CCC(=O)O)C(=O)N[C@@H](CCCNC(=N)N)C(=O)N[C@@H](CCCNC(=N)N)C(=O)N[C@@H](C)C(=O)N[C@@H](C)C(=O)N[C@@H](CCCCNC(=O)c1cccc2cc3ccccc3cc12)C(N)=O)[C@@H](C)O` [Entry 6] ({Acetyl(9-fluorenyl)}-IPESSELTLQELLGEERRAAK(Anthracene1carbonyl)-NH2) yielded a Kd (MBP-16E6 [2]; [3]) of 3.7 ± 1.9 nM.

`CC[C@H](C)[C@H](N)C(=O)N1CCC[C@H]1C(=O)N[C@@H](CCC(=O)O)C(=O)N[C@@H](CO)C(=O)N[C@@H](CO)C(=O)N[C@@H](CCC(=O)O)C(=O)N[C@@H](CC(C)C)C(=O)N[C@H](C(=O)N[C@@H](CC(C)C)C(=O)N[C@@H](CCC(N)=O)C(=O)N[C@@H](CCC(=O)O)C(=O)N[C@@H](CC(C)C)C(=O)N[C@@H](CC(C)C)C(=O)NCC(=O)N[C@@H](CCC(=O)O)C(=O)N[C@@H](CCC(=O)O)C(=O)N[C@@H](CCCNC(=N)N)C(=O)N[C@@H](CCCNC(=N)N)C(N)=O)[C@@H](C)O` [Peptide 1] was tested, and the Kd (MBP-16E6 [2]; [3]) was 2450 ± 513 nM and the Kd (MBP-16E6 [2]; competition KD, BLI competition with 1-biotin, 30 nM MBP-16E6) was 2300 nM and 2400 nM.

`C=C(NC(=O)[C@H](C)NC(=O)[C@H](C)NC(=O)[C@H](CCC(=O)O)NC(=O)[C@H](CCC(N)=O)NC(=O)[C@H](C)NC(=O)[C@@H](NC(=O)[C@H](CC(C)C)NC(=O)[C@H](CCC(=O)O)NC(=O)[C@H](C)NC(=O)[C@H](CO)NC(=O)[C@H](CCC(N)=O)NC(=O)[C@@H]1CCCN1C(=O)[C@@H](NC(=O)CC1c2ccccc2-c2ccccc21)[C@@H](C)CC)[C@@H](C)O)C(=O)N[C@@H](CCCNC(=N)N)C(=O)N[C@@H](CCCNC(=N)N)C(=O)N[C@@H](CCCCN)C(=O)N[C@@H](CCCCN)C(=O)N[C@@H](CCCCNC(=O)c1cccc2cc3ccccc3cc12)C(N)=O` [Peptide 13-3L3A] ({Acetyl(9-fluorenyl)}-IPQSAELTAQEAA[Dha]RRKKK(Anthracene1carbonyl)-NH2) was tested, and the “KD in nM” value (MBP-16E6 [1]; TABLE 2C, BLI competition) was “n.b” and the “Apparent Ki in nM” value (MBP-16E6 [1]; TABLE 2E, competition with immobilized 1-Biotin following 30 min incubation with 16E6) was “n.b”.

With `CC[C@H](C)[C@H](NC(=O)C1CCc2ccccc21)C(=O)N1CCC[C@H]1C(=O)N[C@@H](CCC(=O)O)C(=O)N[C@@H](CO)C(=O)N[C@@H](CO)C(=O)N[C@@H](CCC(=O)O)C(=O)N[C@@H](CC(C)C)C(=O)N[C@H](C(=O)N[C@@H](CC(C)C)C(=O)N[C@@H](CCC(N)=O)C(=O)N[C@@H](CCC(=O)O)C(=O)N[C@@H](CC(C)C)C(=O)N[C@@H](CC(C)C)C(=O)NCC(=O)N[C@@H](CCC(=O)O)C(=O)N[C@@H](CCC(=O)O)C(=O)N[C@@H](CCCNC(=N)N)C(=O)N[C@@H](CCCNC(=N)N)C(N)=O)[C@@H](C)O` (stereo partly shown) [Peptide N3] the “decrease in binding by change of terminal group” value (MBP-16E6 [1]; relative to fluorene-modified N1 / parent modification) was ~ 42 fold.

`CC[C@H](C)[C@H](NC(=O)c1c(O)cccc1O)C(=O)N1CCC[C@H]1C(=O)N[C@@H](CCC(=O)O)C(=O)N[C@@H](CO)C(=O)N[C@@H](CO)C(=O)N[C@@H](CCC(=O)O)C(=O)N[C@@H](CC(C)C)C(=O)N[C@H](C(=O)N[C@@H](CC(C)C)C(=O)N[C@@H](CCC(N)=O)C(=O)N[C@@H](CCC(=O)O)C(=O)N[C@@H](CC(C)C)C(=O)N[C@@H](CC(C)C)C(=O)NCC(=O)N[C@@H](CCC(=O)O)C(=O)N[C@@H](CCC(=O)O)C(=O)N[C@@H](CCCNC(=N)N)C(=O)N[C@@H](CCCNC(=N)N)C(N)=O)[C@@H](C)O` [Peptide N15] showed a Ratio to wild-type (MBP-16E6 [1]) of 3.1 and a Kd (MBP-16E6 [2]; [4]) of 767 ± 295 nM.

`CC[C@H](C)[C@H](NC(=O)c1c(F)c(F)c(F)c(F)c1F)C(=O)N1CCC[C@H]1C(=O)N[C@@H](CCC(=O)O)C(=O)N[C@@H](CO)C(=O)N[C@@H](CO)C(=O)N[C@@H](CCC(=O)O)C(=O)N[C@@H](CC(C)C)C(=O)N[C@H](C(=O)N[C@@H](CC(C)C)C(=O)N[C@@H](CCC(N)=O)C(=O)N[C@@H](CCC(=O)O)C(=O)N[C@@H](CC(C)C)C(=O)N[C@@H](CC(C)C)C(=O)NCC(=O)N[C@@H](CCC(=O)O)C(=O)N[C@@H](CCC(=O)O)C(=O)N[C@@H](CCCNC(=N)N)C(=O)N[C@@H](CCCNC(=N)N)C(N)=O)[C@@H](C)O` [Peptide N16] was tested, and the Ratio to wild-type (MBP-16E6 [1]) was 10.7 and the Kd (MBP-16E6 [2]; [4]) was 228 ± 74 nM.

In the case of `C=C(NC(=O)[C@H](CCC)NC(=O)[C@H](CC1CCC1)NC(=O)[C@H](CCC(=O)O)NC(=O)CNC(=O)[C@H](CCC)NC(=O)[C@@H]1C[C@@H](O)CN1C(=O)[C@H](CCC)NC(=O)[C@@H](N)CCCC(=O)O)C(=O)N[C@@H](CCC(=O)O)C(=O)N[C@@H](CCC(=O)O)C(=O)N[C@@H](CCCNC(=N)N)C(N)=O` [peptide 3] (H-[Aad][Nva][Hyp][Nva]GE[Cba][Nva][Dha]EER-NH2), the Ki (MBP-16E6 [2]) is reported as 0.466 µM.

In the case of `CC[C@H](C)[C@H](NC(=O)CC1c2ccccc2-c2ccccc21)C(=O)N1CCC[C@H]1C(=O)N[C@@H](CCC(=O)O)C(=O)N[C@@H](CO)C(=O)N[C@@H](C)C(=O)N[C@@H](CCC(=O)O)C(=O)N[C@@H](CC(C)C)C(=O)N[C@H](C(=O)N[C@@H](CC(C)C)C(=O)N[C@@H](CCC(N)=O)C(=O)N[C@@H](CCC(=O)O)C(=O)N[C@@H](CC(C)C)C(=O)N[C@@H](CC(C)C)C(=O)NCC(=O)N[C@@H](CCC(=O)O)C(=O)N[C@@H](CCC(=O)O)C(=O)N[C@@H](CCCNC(=N)N)C(=O)N[C@@H](CCCNC(=N)N)C(=O)N[C@@H](C)C(=O)N[C@@H](C)C(=O)N[C@@H](CCCCNC(=O)c1cccc2cc3ccccc3cc12)C(N)=O)[C@@H](C)O` [peptide 6′] ({Acetyl(9-fluorenyl)}-IPESAELTLQELLGEERRAAK(Anthracene1carbonyl)-NH2), the Kd (MBP-16E6 [2]; KD in nM, TABLE 2C, BLI competition) is reported as 1.4 ± 0.6 nM, the Kd (MBP-16E6 [2]; [3]) is reported as 2.7 ± 1.2 nM and the Kd (MBP-16E6 [2]; competition KD, BLI competition, values in text) is reported as 2.7 nM.

With `C=C(NC(=O)[C@H](CC1CC1)NC(=O)[C@H](CCc1ccccc1)NC(=O)[C@H](CCC(=O)O)NC(=O)C(C)(C)NC(=O)[C@H](CC1CC1)NC(=O)[C@@H](NC(=O)[C@H](Cc1ccc2ccccc2c1)NC(=O)[C@@H](N)CCCC(=O)O)C1CCC1)C(=O)N[C@@H](CCC(=O)O)C(=O)N[C@@H](CCC(=O)O)C(=O)N[C@@H](CCCNC(=N)N)C(N)=O` [peptide 14] (H-[Aad][2Nal][Gly(cBu)][Ala(cPr)][Aib]E[hPhe][Ala(cPr)][Dha]EER-NH2) the “lower binding affinity compared to peptide 18” value (MBP-16E6 [1]; substitution Leu8Hof) was 2 fold.

With `C=C(NC(=O)[C@H](CC(C)C)NC(=O)[C@H](CC(C)C)NC(=O)[C@H](CCCC(=O)O)NC(=O)C(C)(C)NC(=O)[C@H](CC1CC1)NC(=O)[C@@H](NC(=O)[C@H](Cc1ccc2ccccc2c1)NC(=O)[C@@H](N)CCCC(=O)O)C1CCCC1)C(=O)N[C@@H](CCC(=O)O)C(=O)N[C@@H](CCC(=O)O)C(=O)N[C@@H](CCCNC(=N)N)C(N)=O` [peptide 23] (H-[Aad][2Nal][Gly(cPent)][Ala(cPr)][Aib][Aad]LL[Dha]EER-NH2) the “improved affinity compared to parent reactide ELT-DHA9G” value (MBP-16E6 [1]) was 50 fold.
